Experimental findings from US20230091047A1 (priority 2019, published 2023) are described below.

Data set [1] relates to HBV (HepG2.117 cell line, inducibly HBV producing). The data set is described as follows: Anti-HBV activity: intracellular HBV DNA by real-time PCR in HepG2.117 cells after 3 days of treatment. The format is cell-based, hepatitis B virus. The procedure, abridged:
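First, HBV replication is induced in HepG2.117 cells by doxycycline absence. Next, serially diluted compound is added for 3 days. Finally, intracellular HBV DNA is quantified by HBV-specific real-time PCR.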
Background: Quantitative PCR measures a nucleic acid by following its amplification.

Data set [2] can be described thus: in vitro. The format is cell-based. The settings on record: human, HepG2 or HepG2.117 cells, ATPlite, mean value. The procedure, abridged:
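Luminescent ATP quantitation served as the viability endpoint following a 3- or 4-day incubation with test compounds.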
A general note: In ATP-based viability assays light output follows the ATP content of the culture.

The mark [3] stands for this setting: Hepatitis B virus, HepG2.117, 72 h, HepG2.117 cells, 3 days of treatment, intracellular HBV DNA by real-time PCR; mean value; read-out: EC50 (μM, mean value).
Setting [4] is: 3-days incubation (unmarked values).
Where [5] appears, read: Hepatitis B virus, HepG2.117, 72 h, HepG2.117 cells, intracellular HBV DNA by real-time PCR, 3 days of treatment, mean value; read-out: EC50 (μM, mean value).
Where [6] appears, read: 3-days incubation (not marked with *).

Read-outs that look alike come from different tables or passages of the source.

With `C=CCNc1nc2c(c(=O)n1CC=C)CCN(C(=O)c1ccc(Cl)c(Cl)c1)C2` [Compound C89, 7-(3,4-dichlorobenzoyl)-3-(prop-2-en-1-yl)-2-[(prop-2-en-1-yl)amino]-5,6,7,8-tetrahydropyrido[3,4-d]pyrimidin-4(3H)-one], the EC50 (commonly the concentration giving half of the maximal effect) in data set [1] (setting [3]) stood at 8.76 µM. Moreover, the CC50 – broadly, the concentration giving 50% cytotoxicity – at 3 days in data set [2] (setting [4]) is more than 50 µM.
As to `CNC(=O)c1ccc([C@H](C)Nc2nc3c(c(=O)n2-c2ccc(NC(C)=O)cc2)C[C@@H](C)N(C(=O)c2ccc(Cl)c(Cl)c2)C3)cc1` (single isomer, unassigned) [Compound C528b], the concentration for a half-maximal effect (EC50) in data set [1] (setting [5]) was more than 10 µM. In data set [2] (setting [6]), the CC50 at 3 days is more than 50 µM.
The matching figures for `CNC(=O)c1ccc(-n2c(N[C@H](C)C(C)(C)C)nc3c(c2=O)C[C@@H](C)N(C(=O)c2ccc(Cl)c(Cl)c2)C3)cc1` (single isomer, unassigned) [Compound C459a]: 0.44 µM and 31.9 µM.
Consider `CC(C)Nc1nc2c(c(=O)n1-c1ccc(-c3ncccn3)cc1)C[C@@H](C)N(C(=O)c1ccc(Cl)c(Cl)c1)C2` [Compound C237, (6R)-7-(3,4-dichlorobenzoyl)-6-methyl-2-[(propan-2-yl)amino]-3-[4-(pyrimidin-2-yl)phenyl]-5,6,7,8-tetrahydropyrido[3,4-d]pyrimidin-4(3H)-one], for which, in data set [1] (setting [3]), the EC50 came out at 0.23 µM. Besides, the CC50 at 3 days in data set [2] (setting [4]) is more than 50 µM.
With `CNC(=O)c1ccc(-n2c(N3CC4CC3C4)nc3c(c2=O)C[C@@H](C)N(C(=O)c2ccc(Cl)c(Cl)c2)C3)cc1` [Compound C408], in data set [1] (setting [5]), the EC50 worked out at 0.05 µM. The same compound gave a CC50 at 3 days in data set [2] (setting [6]) of more than 50 µM.
The matching figures for `CNC(=O)c1ncc(-n2c(NC(C)C)nc3c(c2=O)C[C@@H](C)N(C(=O)c2ccc(Cl)c(Cl)c2)C3)n1C` [Compound C419]: 0.19 µM and more than 50 µM.
Take `CC(C)Nc1nc2c(c(=O)n1-c1ccc(C(=O)NC3CC3)cc1)C[C@@H](C)N(C(=O)c1ccc(Cl)c(Cl)c1)C2` [Compound C167, N-cyclopropyl-4-[(6R)-7-(3,4-dichlorobenzoyl)-6-methyl-4-oxo-2-[(propan-2-yl)amino]-5,6,7,8-tetrahydropyrido[3,4-d]pyrimidin-3(4H)-yl]benzamide]: the EC50 in data set [1] (setting [3]) is 0.06 µM. In data set [2] (setting [4]), this compound displayed a CC50 at 3 days of more than 50 µM.
As for `CNC(=O)c1ccc(-n2c(NC(C)C)nc3c(c2=O)C[C@@H](C)N(C(=O)c2cccc(Cl)c2OC)C3)cc1` [Compound C504], the concentration for a half-maximal effect (EC50) in data set [1] (setting [5]) was determined as 1.01 µM. The same compound returned a CC50 at 3 days in data set [2] (setting [6]) of more than 50 µM.
As for `CNC(=O)c1ccc(-n2c(N[C@H](CCO)C3CC3)nc3c(c2=O)C[C@@H](C)N(C(=O)c2ccc(Cl)c(Cl)c2)C3)cc1` (single isomer, unassigned) [Compound C283, 4-[(6R)-2-{[(1*R)-1-cyclopropyl-3-hydroxypropyl]amino}-7-(3,4-dichlorobenzoyl)-6-methyl-4-oxo-5,6,7,8-tetrahydropyrido[3,4-d]pyrimidin-3(4H)-yl]-N-methylbenzamide], the EC50 in data set [1] (setting [3]) turned out to be 5.52 µM. Further, the CC50 at 3 days in data set [2] (setting [4]) was more than 50 µM.
The matching figures for `COc1ccc(CNc2nc3c(c(=O)n2-c2ccc(S(C)(=O)=O)cc2)C[C@@H](C)N(C(=O)c2ccc(Cl)c(Cl)c2)C3)cc1` [Compound C145, (6R)-7-(3,4-dichlorobenzoyl)-3-[4-(methanesulfonyl)phenyl]-2-{[(4-methoxyphenyl)methyl]amino}-6-methyl-5,6,7,8-tetrahydropyrido[3,4-d]pyrimidin-4(3H)-one]: 0.31 µM and more than 42 µM.
Consider `CNC(=O)c1ccc(-n2c(NC(C)C)nc3c(c2=O)C[C@@H](C)N(C(=O)c2cc4c(OC(F)(F)F)cccc4[nH]2)C3)cc1` [Compound C587], for which, in data set [1] (setting [5]), the EC50 stood at 0.09 µM. Besides, in data set [2] (setting [6]), the CC50 at 3 days came out at 9.2 µM.
Consider `CC(C)Nc1nc2c(c(=O)n1-c1ccc(Cl)nc1)C[C@@H](C)N(C(=O)c1ccc(Cl)c(Cl)c1)C2` [Compound C228, (6R)-3-(6-chloropyridin-3-yl)-7-(3,4-dichlorobenzoyl)-6-methyl-2-[(propan-2-yl)amino]-5,6,7,8-tetrahydropyrido[3,4-d]pyrimidin-4(3H)-one], for which, in data set [1] (setting [3]), the 50% effective concentration (EC50) came to 0.27 µM. This compound also registered a CC50 at 3 days in data set [2] (setting [4]) of more than 50 µM.
Regarding `CNC(=O)c1ccc(-n2c(N[C@H](C)c3ccc(OC)c(F)c3)nc3c(c2=O)C[C@@H](C)N(C(=O)c2ccc(Cl)c(Cl)c2)C3)cc1` (single isomer, unassigned) [Compound C416a], the EC50 in data set [1] (setting [5]) was found to be 0.96 µM. The compound also came in with a 50% cytotoxic concentration (CC50) at 3 days in data set [2] (setting [6]) of more than 50 µM.
The matching figures for `CNC(=O)c1ccc(-n2c(N[C@H](C)c3ccc(OC)c(OC)c3)nc3c(c2=O)C[C@@H](C)N(C(=O)c2ccc(Cl)c(Cl)c2)C3)cc1` (single isomer, unassigned) [Compound C415a]: 1.06 µM and 32.9 µM.
For `CNC(=O)c1ccc(-n2c(OC(C)C)nc3c(c2=O)C[C@@H](C)N(C(=O)c2ccc(Cl)c(Cl)c2)C3)cc1` [Compound C289, 4-[(6R)-7-(3,4-dichlorobenzoyl)-6-methyl-4-oxo-2-[(propan-2-yl)oxy]-5,6,7,8-tetrahydropyrido[3,4-d]pyrimidin-3(4H)-yl]-N-methylbenzamide], in data set [1] (setting [3]), the half-maximal effective concentration (EC50) worked out at 0.08 µM. In data set [2] (setting [4]), this compound returned a CC50 at 3 days of more than 50 µM.
The matching figures for `CNC(=O)c1ccc(-n2c(NC(C)C)nc3c(c2=O)C[C@@H](C)N(C(=O)c2ccc(Cl)c(Cl)c2)C3)cc1Cl` [Compound C338, 2-chloro-4-[(6R)-7-(3,4-dichlorobenzoyl)-6-methyl-4-oxo-2-[(propan-2-yl)amino]-5,6,7,8-tetrahydropyrido[3,4-d]pyrimidin-3(4H)-yl]-N-methylbenzamide]: 0.1 µM and more than 50 µM.
Take `CNC(=O)c1cc(-n2c(NC(C)C)nc3c(c2=O)C[C@@H](C)N(C(=O)c2ccc(Cl)c(C(F)(F)F)c2)C3)[nH]n1` [Compound C687]: in data set [1] (setting [5]), the concentration for a half-maximal effect (EC50) worked out at 0.02 µM. In data set [2] (setting [6]), this compound had a CC50 at 3 days of more than 50 µM.
`CNC(=O)c1nnc(-n2c(NC(C)C)nc3c(c2=O)C[C@@H](C)N(C(=O)c2ccc(Cl)c(Cl)c2)C3)[nH]1` [Compound C374]: the concentration for a half-maximal effect (EC50) in data set [1] (setting [3]) was 1.49 µM. For the same compound, the cytotoxic concentration (CC50) at 3 days in data set [2] (setting [4]) is more than 50 µM.
The matching figures for `CNC(=O)c1ccc(-n2c(NC3CC3)nc3c(c2=O)C[C@@H](C)N(C(=O)c2ccc(Cl)c(Cl)c2)C3)cc1` [Compound C329, 4-[(6R)-2-(cyclopropylamino)-7-(3,4-dichlorobenzoyl)-6-methyl-4-oxo-5,6,7,8-tetrahydropyrido[3,4-d]pyrimidin-3(4H)-yl]-N-methylbenzamide]: 0.55 µM and more than 50 µM.
Turning to `CC(C)Nc1nc2c(c(=O)n1-c1ccc(S(=O)(=O)Nc3ccccn3)cc1)C[C@@H](C)N(C(=O)c1ccc(Cl)c(Cl)c1)C2` [Compound C400], in data set [1] (setting [5]), the concentration giving a half-maximal response (EC50) was 1.15 µM. Also, the CC50 at 3 days in data set [2] (setting [6]) was more than 50 µM.
Take `CNC(=O)c1ccc(-n2c(NCc3ccc(OC)cc3)nc3c(c2=O)CCN(C(=O)c2ccc(Cl)c(Cl)c2)C3)cc1F` [Compound C220, 4-[7-(3,4-dichlorobenzoyl)-2-{[(4-methoxyphenyl)methyl]amino}-4-oxo-5,6,7,8-tetrahydropyrido[3,4-d]pyrimidin-3(4H)-yl]-2-fluoro-N-methylbenzamide]: in data set [1] (setting [3]), the 50% effective concentration (EC50) stood at 0.42 µM. This compound also registered a CC50 at 3 days in data set [2] (setting [4]) of more than 50 µM.
`CNC(=O)c1ccc(-n2c(NC(C)C)nc3c(c2=O)C[C@@H](C)N(C(=O)c2ccc(Br)c(OC(C)C)c2)C3)cc1` [Compound C575]: in data set [1] (setting [5]), the EC50 amounted to 0.55 µM. Moreover, the CC50 at 3 days in data set [2] (setting [6]) was more than 50 µM.
The matching figures for `CNC(=O)c1ccc(-n2c(NCc3cccnc3)nc3c(c2=O)C[C@@H](C)N(C(=O)c2ccc(Cl)c(Cl)c2)C3)cc1` [Compound C378]: 5.73 µM and more than 50 µM.
For `CNC(=O)c1ccc(-n2c(NC(C)C)nc3c(c2=O)C[C@@H](C)N(C(=O)c2ccc(F)c(C)c2)C3)cc1` [Compound C499] the same measures were 1.53 µM and more than 50 µM.
In the case of `CNC(=O)c1ccc(-n2c(N[C@@H](C)c3ccc(C(F)F)cc3)nc3c(c2=O)C[C@@H](C)N(C(=O)c2ccc(Cl)c(Cl)c2)C3)cc1` [Compound C609], in data set [1] (setting [5]), the 50% effective concentration (EC50) worked out at 0.08 µM. Also, it took 18.7 µM to reach half-maximal cytotoxicity in data set [2] (setting [6]) (CC50 at 3 days).
The matching figures for `CNC(=O)c1ccc(-n2c(N[C@H](C)c3ccc4c(c3)OCO4)nc3c(c2=O)C[C@@H](C)N(C(=O)c2ccc(Cl)c(Cl)c2)C3)cc1` (single isomer, unassigned) [Compound C414a]: 0.29 µM and more than 50 µM.
The matching figures for `CNC(=O)c1ccc(-n2c(NC(C)c3ccccc3OC(F)F)nc3c(c2=O)C[C@@H](C)N(C(=O)c2ccc(Cl)c(Cl)c2)C3)cc1` (stereo partly drawn) [Compound C438]: 0.4 µM and 31.2 µM.
On to `CCOC(=O)[C@H]1CC[C@@H](n2c(NC(C)C)nc3c(c2=O)C[C@@H](C)N(C(=O)c2ccc(Cl)c(Cl)c2)C3)CC1` [Compound C273, ethyl cis-4-[(6R)-7-(3,4-dichlorobenzoyl)-6-methyl-4-oxo-2-[(propan-2-yl)amino]-5,6,7,8-tetrahydropyrido[3,4-d]pyrimidin-3(4H)-yl]cyclohexane-1-carboxylate], for which the EC50 in data set [1] (setting [3]) came to 0.31 µM. The compound further displayed a half-maximal cytotoxic concentration (CC50) at 3 days in data set [2] (setting [4]) of 33.4 µM.
With `CNC(=O)c1ccc(-n2c(NC(C)C)nc3c(c2=O)C[C@@H](C)N(C(=O)c2ccc(Br)cc2OC)C3)cc1` [Compound C513], the EC50 in data set [1] (setting [5]) worked out at 22.1 µM. For the same compound, the CC50 at 3 days in data set [2] (setting [6]) is more than 50 µM.
The matching figures for `CNC(=O)c1ccc(-n2c(NC(C)C)nc3c(c2=O)C[C@@H](C)N(C(=O)c2cc(Br)c4nccn4c2)C3)cc1` [Compound C495]: more than 25 µM and more than 50 µM.
